Legend:
CYP2C9 = target: T1, CYP2C9 (Homo sapiens, UniProt P11712); experiment: Cytochrome P450 inhibition, CYP2C9; format: in vitro ADME; conditions: probe Tolbutamide (200 μM); 10 μM compound, human liver microsomes, substrate Tolbutamide; read-out: Inhibition percentage CYP2C9 (Tolbutamide)
T1 construct: from tissue; host or cells: human liver microsomes
Description: (§1) Example 205 Cytochrome P450 Measurements
(§2) The cytochrome P450 was measured as the following procedure:
(§3) 1) A master solution containing phosphate buffer, ultra-pure H2O, MgCl2 solution and human liver microsomes was made according to Table 17, and then 1 μL of 2 mM of compound solution or 1 μL of DMSO (as without inhibitor control) was added to the above master solution. The final concentration of test compounds or control compounds was 10 μM.
4) For CYP2C9 inhibition, 1 μL of specific drug substrate (Tolbutamide: 40 mM) was added at the final concentration of 200 μM to the above solution.
(§4) 8) The mixture was pre-warmed at 37° C. for 5 min. The reaction was started by the addition of 20 μL of 10 mM NADPH solution at the final concentration of 1 mM and carried out at 37° C.
(§5) 9) The reaction was stopped by addition of 300 μL of cold quench solution (methanol containing internal standards (1S, 500 nM Labetalol, 100 nM Alprazolam and 2 μM Ketoprofen) at the designated time points (Phenacetin: 20 min; Paclitaxel: 10 min; Tolbutamide: 20 min; (s)-Mephenytoin: 20 min; Midazolam: 5 min; Testosterone: 10 min). Samples were vortexed for 5 minutes and centrifuged at 3220 g for 40 minutes at 4° C. And then 100 μL of the supernatant was transferred to a new 96-well plate with 100 μL or 200 μL water (depends on the LC-MS signal response and peak shape) for LC-MS/MS analysis.
(§6) All experiments were performed in duplicates.
(§7) Inhibition percentages for compounds against CYP1A2, CYP2C8, CYP2C9, CYP2C19, and […]

CYP3A4 = target: T2, CYP3A4 (Homo sapiens, UniProt P08684); experiment: Cytochrome P450 inhibition, CYP3A4; format: in vitro ADME; conditions: 10 μM compound, human liver microsomes; for inhibition at 5 min, 10 µM: probe Midazolam (5 μM), substrate Midazolam, read-out: Inhibition percentage CYP3A4 (Midazolam); for inhibition at 10 min, 10 µM: probe Testosterone (50 μM), substrate Testosterone, read-out: Inhibition percentage CYP3A4 (Testosterone)
T2 construct: from tissue; host or cells: human liver microsomes
Description: as §1, §2, §3
6) For CYP3A4 inhibition, 1 μL of specific drug substrate (Midazolam: 1 mM) was added at the final concentration of 5 μM to the above solution.
7) For CYP3A4 inhibition, 1 μL of specific drug substrate (Testosterone: 10 mM) was added at the final concentration of 50 μM to the above solution.
as §4, §5, §6, §7

CYP2C8 = target: T3, CYP2C8 (Homo sapiens, UniProt P10632); experiment: Cytochrome P450 inhibition, CYP2C8; format: in vitro ADME; conditions: probe Paclitaxel (5 μM); 10 μM compound, human liver microsomes, substrate Paclitaxel; read-out: Inhibition percentage CYP2C8 (Paclitaxel)
T3 construct: from tissue; host or cells: human liver microsomes
T3 sequence (P10632 1-490): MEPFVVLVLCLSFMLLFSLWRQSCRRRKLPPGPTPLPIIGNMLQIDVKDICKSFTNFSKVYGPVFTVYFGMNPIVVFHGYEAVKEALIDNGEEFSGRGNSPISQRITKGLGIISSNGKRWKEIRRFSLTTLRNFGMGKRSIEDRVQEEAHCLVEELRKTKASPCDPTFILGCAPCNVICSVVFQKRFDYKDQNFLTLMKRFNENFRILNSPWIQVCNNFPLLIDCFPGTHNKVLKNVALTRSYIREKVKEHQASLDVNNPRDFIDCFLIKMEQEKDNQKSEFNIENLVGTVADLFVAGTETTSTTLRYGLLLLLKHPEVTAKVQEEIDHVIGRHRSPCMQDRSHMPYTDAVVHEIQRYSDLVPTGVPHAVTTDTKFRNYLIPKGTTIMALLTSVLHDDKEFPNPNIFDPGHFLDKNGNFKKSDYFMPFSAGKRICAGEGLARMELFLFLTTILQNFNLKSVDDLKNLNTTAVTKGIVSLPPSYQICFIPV
Description: as §1, §2, §3
3) For CYP2C8 inhibition, 1 μL of specific drug substrate (Paclitaxel: 1 mM) was added at the final concentration of 5 μM to the above solution.
as §4, §5, §6, §7

CYP2C19 = target: T4, CYP2C19 (Homo sapiens, UniProt P33261); experiment: Cytochrome P450 inhibition, CYP2C19; format: in vitro ADME; conditions: probe (s)-Mephenytoin (50 μM); 10 μM compound, human liver microsomes, substrate (s)-Mephenytoin; read-out: Inhibition percentage CYP2C19 ((s)-Mephenytoin)
T4 construct: from tissue; host or cells: human liver microsomes
Description: as §1, §2, §3
5) For CYP2C19 inhibition, 1 μL of specific drug substrate ((s)-Mephenytoin: 10 mM) was added at the final concentration of 50 μM to the above solution.
as §4, §5, §6, §7

Ba/F3-ETV6-NTRK3 = target: T5, Ba/F3-ETV6-NTRK3 (Homo sapiens, UniProt Q16288); experiment: Ba/F3-ETV6-NTRK3 cells proliferation assay; format: cell-based; conditions: 72 h, CellTiter Glo
T5 construct: Ba/F3 cells with TPM3-NTRK1 or ETV6-NTRK3 fusion mutation gene stably overexpressed named Ba/F3-TPM3-NTRK1 and Ba/F3-ETV6-NTRK3; fused on or other part: P41212 (Transcription factor ETV6)
Description: Example 202 Ba/F3-TPM3-NTRK1 and Ba/F3-ETV6-NTRK3 cells proliferation assay
Cell line: Ba/F3 cells with TPM3-NTRK1 or ETV6-NTRK3 fusion mutation gene stably overexpressed named Ba/F3-TPM3-NTRK1 and Ba/F3-ETV6-NTRK3.
RPMI 1640 and 10% FBS and 1% PS and 2 ug/mL puromycin.
b) Collect cell to a 15 mL centrifuged tube, centrifuge at 1000 rpm for 5 min. Discard the supernatant, count, and make the cell density at 1.49×10^4 cells/mL, then place it in a 37° C., 5% CO2 incubator.
a) The test compound (20 mM stock solution) was diluted to 60 μM with 100% DMSO as starting concentration then 3-fold serial diluted with “9+0” concentrations. in a 96-well dilution plate (Thermo, Cat. No. 249944);
b) The above compound solution was diluted 1:20 times with culture medium to prepare a 10 fold working solution;
a) Take cells in log phase growth, centrifuge at 1000 rpm for 5 min, then resuspend the cells with culture medium, then count cells;
b) Cells were seeded to 96-well cell culture plate with density at 2000 cells/well;
a) Compounds prepared at step 2 were added to cell plate with 15 μL per well, the final concentrations were 300, 100, 33.33, 11.11, 3.70, 1.23, 0.41, 0.14, 0.05 and 0 nM, and the final concentration of DMSO was 0.5%. The blank control well was a culture medium (0.5% DMSO);
c) The cells were incubated for an additional 72 h in the incubator.
a) Remove the 96-well cell culture plate and add 50 μl of CTG reagent (CellTiter Glo kit, promega, Cat #G7573).
b) Plate was shaked for 2 min and then let it cool for 30 min at room temperature.
c) The Luminescence signal value was read using a PerkinElmer reader.
Experimental Data Analysis
Data were analyzed using GraphPad Prism 6.0 software to obtain a fitted curve of compound activity.
Fit the Compound IC50 from non-linear regression equation:
Y=Bottom+(Top-Bottom)/(1+10^((Log IC50-X)×HillSlope));
X: The log of the concentration of the compound; Y: Luminescence value.

T4 sequence (P33261 whole entry): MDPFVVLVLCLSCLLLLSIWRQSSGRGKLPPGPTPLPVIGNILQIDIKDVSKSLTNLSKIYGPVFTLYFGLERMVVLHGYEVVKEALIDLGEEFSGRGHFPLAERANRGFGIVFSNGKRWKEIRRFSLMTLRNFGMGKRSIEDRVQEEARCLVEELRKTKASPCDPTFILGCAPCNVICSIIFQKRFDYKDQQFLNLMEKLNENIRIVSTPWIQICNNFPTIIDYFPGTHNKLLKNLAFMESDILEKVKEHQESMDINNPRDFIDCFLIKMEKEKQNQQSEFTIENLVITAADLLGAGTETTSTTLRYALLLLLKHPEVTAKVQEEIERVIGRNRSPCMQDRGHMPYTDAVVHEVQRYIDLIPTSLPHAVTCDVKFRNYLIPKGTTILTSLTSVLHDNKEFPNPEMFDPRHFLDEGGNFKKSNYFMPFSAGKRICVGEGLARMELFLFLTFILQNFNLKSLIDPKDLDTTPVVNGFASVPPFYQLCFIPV
T2 sequence (P08684 whole entry): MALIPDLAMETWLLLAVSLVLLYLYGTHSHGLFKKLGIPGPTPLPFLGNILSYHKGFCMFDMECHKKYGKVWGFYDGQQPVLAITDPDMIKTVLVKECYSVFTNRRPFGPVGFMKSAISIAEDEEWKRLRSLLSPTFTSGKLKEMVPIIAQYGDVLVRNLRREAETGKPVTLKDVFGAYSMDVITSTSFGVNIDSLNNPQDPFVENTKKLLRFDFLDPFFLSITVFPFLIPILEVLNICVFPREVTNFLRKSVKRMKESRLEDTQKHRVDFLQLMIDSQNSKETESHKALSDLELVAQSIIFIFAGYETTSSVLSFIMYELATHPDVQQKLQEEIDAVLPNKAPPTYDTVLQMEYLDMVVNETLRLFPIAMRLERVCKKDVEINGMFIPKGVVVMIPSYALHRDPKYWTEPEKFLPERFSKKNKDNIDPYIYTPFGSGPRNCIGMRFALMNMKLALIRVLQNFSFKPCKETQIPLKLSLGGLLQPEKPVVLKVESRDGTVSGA
T1 sequence (P11712 whole entry): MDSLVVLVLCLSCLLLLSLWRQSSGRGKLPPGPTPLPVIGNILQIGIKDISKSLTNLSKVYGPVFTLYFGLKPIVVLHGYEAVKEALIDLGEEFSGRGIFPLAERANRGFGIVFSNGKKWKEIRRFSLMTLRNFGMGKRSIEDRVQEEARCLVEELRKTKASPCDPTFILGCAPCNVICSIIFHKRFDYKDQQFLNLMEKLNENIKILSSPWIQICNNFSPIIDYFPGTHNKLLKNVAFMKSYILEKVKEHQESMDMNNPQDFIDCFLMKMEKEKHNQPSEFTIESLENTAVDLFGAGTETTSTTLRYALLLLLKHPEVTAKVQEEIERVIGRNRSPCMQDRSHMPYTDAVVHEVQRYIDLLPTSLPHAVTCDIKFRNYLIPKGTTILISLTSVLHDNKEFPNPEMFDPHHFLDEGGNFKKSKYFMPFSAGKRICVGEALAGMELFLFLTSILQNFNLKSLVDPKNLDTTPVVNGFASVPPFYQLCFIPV
T5 sequence (Q16288 whole entry, the tested form may be a part): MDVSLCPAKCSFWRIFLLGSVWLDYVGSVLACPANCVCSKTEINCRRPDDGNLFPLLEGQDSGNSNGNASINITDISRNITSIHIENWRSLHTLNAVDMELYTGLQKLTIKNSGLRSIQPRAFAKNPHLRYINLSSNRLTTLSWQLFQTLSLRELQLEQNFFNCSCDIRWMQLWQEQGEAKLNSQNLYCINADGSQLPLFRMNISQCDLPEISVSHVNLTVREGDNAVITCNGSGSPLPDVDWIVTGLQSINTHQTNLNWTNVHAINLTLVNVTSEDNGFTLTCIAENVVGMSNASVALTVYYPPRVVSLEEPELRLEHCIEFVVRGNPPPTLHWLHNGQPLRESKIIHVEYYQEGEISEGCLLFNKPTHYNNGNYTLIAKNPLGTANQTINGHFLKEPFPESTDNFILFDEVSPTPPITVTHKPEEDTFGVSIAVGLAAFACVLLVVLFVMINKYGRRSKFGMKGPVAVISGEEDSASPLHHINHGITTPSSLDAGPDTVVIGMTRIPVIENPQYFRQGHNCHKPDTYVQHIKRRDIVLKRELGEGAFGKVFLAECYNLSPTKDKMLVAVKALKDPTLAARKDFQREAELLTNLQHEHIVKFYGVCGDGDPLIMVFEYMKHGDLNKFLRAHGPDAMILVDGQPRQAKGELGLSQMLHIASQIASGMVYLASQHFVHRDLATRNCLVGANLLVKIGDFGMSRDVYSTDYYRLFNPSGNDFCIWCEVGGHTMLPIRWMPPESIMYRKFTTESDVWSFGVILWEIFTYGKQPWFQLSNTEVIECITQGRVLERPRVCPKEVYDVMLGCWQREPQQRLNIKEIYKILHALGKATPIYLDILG

Row | Compound | inhibition at 20 min, 10 µM (CYP2C9) | inhibition at 5 min, 10 µM (CYP3A4) | inhibition at 10 min, 10 µM (CYP3A4) | inhibition at 10 min, 10 µM (CYP2C8) | inhibition at 20 min, 10 µM (CYP2C19) | IC50 (Ba/F3-ETV6-NTRK3)
1 | Cc1nnc(-c2cnn3ccc(N4CCCC4c4cc(F)ccc4F)nc23)[nH]1 (centres unmarked) [Comparative compound A, 5-[2-(2,5-Difluorophenyl)pyrrolidin-1-yl]-3-(5-methyl-1H-1,2,4-triazol-3-yl)pyrazolo[1,5-a]pyrimidine, reference compound] | 25.4% | 70.1% | 38.3% | 19.3% | 13% | –
2 | C[C@H](O)c1nnc(-c2cnn3ccc(N4CCC[C@@H]4c4cc(F)ccc4F)nc23)[nH]1 [Compound 4, (S)-1-(5-(5-((R)-2-(2,5-difluorophenyl)pyrrolidin-1-yl)pyrazolo[1,5-a]pyrimidin-3-yl)-4H-1,2,4-triazol-3-yl)ethan-1-ol] | 5.96% | 20% | 22.8% | 18.2% | 7.23% | 2.78 nM
3 | CC(C)(O)c1nnc(-c2cnn3ccc(N4CCC[C@@H]4c4cc(F)ccc4F)nc23)[nH]1 [Compound 7, (R)-2-(5-(5-(2-(2,5-difluorophenyl)pyrrolidin-1-yl)pyrazolo[1,5-a]pyrimidin-3-yl)-4H-1,2,4-triazol-3-yl)propan-2-ol] | 22.7% | 6.97% | 5.7% | 1.37% | 6.79% | 5.68 nM
4 | C[C@H](N)c1nnc(-c2cnn3ccc(N4CCC[C@@H]4c4cc(F)ccc4F)nc23)[nH]1 [Compound 11, (S)-1-(5-(5-((R)-2-(2,5-difluorophenyl)pyrrolidin-1-yl)pyrazolo[1,5-a]pyrimidin-3-yl)-4H-1,2,4-triazol-3-yl)ethan-1-amine] | – | – | – | – | – | 5.79 nM
5 | OC(c1nnc(-c2cnn3ccc(N4CCC[C@@H]4c4cc(F)ccc4F)nc23)[nH]1)C(F)(F)F (stereo partly drawn) [Compound 47, 1-(5-(5-((R)-2-(2,5-difluorophenyl)pyrrolidin-1-yl)pyrazolo[1,5-a]pyrimidin-3-yl)-4H-1,2,4-triazol-3-yl)-2,2,2-trifluoroethan-1-ol] | 50.4% | 22.4% | 29.5% | 32.8% | 20.3% | –
